Tests used:
Format in all cases: cell-based
Microsporum canis = experiment: Antifungal activity in vitro, resazurin growth inhibition screen: Microsporum canis; conditions: Microsporum canis B68128
Experimental: (§1) The standard susceptibility screen was performed in 96-well plates (U-bottom, Greiner Bio-One). Serial dilutions (2-fold or 4-fold) of 20 mM compound stock solutions were made in 100% DMSO, followed by an intermediate dilution step in water. These serial dilutions (10 μl) were then spotted onto test-plates that could be stored in the dark at 4° C. for a maximum period of 2 weeks. An adequate broad dose-range was included with 64 μM as the highest in-test concentration. […] The different fungal species/isolates (Table 3a) were cryopreserved and 1/1000 diluted in medium just prior to use. A standard inoculum of 200 μl containing 10^3 colony-forming unit (cfu) was then added to each well. A positive control (100% growth=fungal culture without antifungal) and a negative control (0% growth=RPMI-MOPS medium) were included on each plate.

Candida parapsilosis = experiment: Antifungal activity in vitro, resazurin growth inhibition screen: Candida parapsilosis; conditions: Candida parapsilosis B66126
Experimental: as §1

Trichophyton rubrum = experiment: Antifungal activity in vitro, resazurin growth inhibition screen: Trichophyton rubrum; conditions: Trichophyton rubrum B68183
Experimental: as §1

Aspergillus fumigatus = experiment: Antifungal activity in vitro, resazurin growth inhibition screen: Aspergillus fumigatus; conditions: Aspergillus fumigatus B42928
Experimental: as §1

Cryptococcus neoformans = experiment: Antifungal activity in vitro, resazurin growth inhibition screen: Cryptococcus neoformans; conditions: Cryptococcus neoformans B66663
Experimental: as §1

[1] = system: Trichophyton mentagrophytes; experiment: Antifungal activity in vitro, resazurin growth inhibition screen: Trichophyton mentagrophytes; conditions: Trichophyton mentagrophytes B70554
Experimental: as §1

Sporothrix schenkii = experiment: Antifungal activity in vitro, resazurin growth inhibition screen: Sporothrix schenkii; conditions: Sporothrix schenkii B62482
Experimental: as §1

SMILES	Inf. B pIC50 (Microsporum canis)	Inf. D pIC50 (Candida parapsilosis)	Inf. C pIC50 (Trichophyton rubrum)	Inf. E pIC50 (Aspergillus fumigatus)	Inf. F pIC50 (Cryptococcus neoformans)	Inf. G pIC50 [1]	Inf. A pIC50 (Sporothrix schenkii)
Br.CCOc1cc2c(cc1C1NCc3c(Cl)cccc3-n3cccc31)OC(C)C2 (centres unmarked) [Compound 50, 7-chloro-4-(5-ethoxy-2,3-dihydro-2-methyl-6-benzofuranyl)-5,6-dihydro-4H-pyrrolo[1,2-a][1,4]benzodiazepine .HBr]	4.92	<4.19	5.52	<4.19	4.74	<4.19	<4.19
Cl.O=C1CCc2ccc(C3NCc4c(Cl)cccc4-n4cccc43)cc21 (centres unmarked) [Compound 52, 6-(7-chloro-5,6-dihydro-4H-pyrrolo[1,2-a][1,4]benzodiazepin-4-yl)-2,3-dihydro-1H-inden-1-one .HCl]	<4.80	<4.19	4.55	<4.19	<4.19	4.31	<4.19
Cl.Clc1cc(Cl)c2c(c1)-n1cccc1C(c1ccc3c(c1)CCC3)NC2 (centres unmarked) [Compound 19, 7,9-dichloro-4-(2,3-dihydro-1H-inden-5-yl)-5,6-dihydro-4H-pyrrolo[1,2-a][1,4]-benzodiazepine .HCl]	5.40	<4.19	6.00	4.96	5.70	5.63	<4.19
Cl.Clc1cc(Cl)c2c(c1)CNC(c1ccc3c(c1)CCO3)c1cccn1-2 (centres unmarked) [Compound 34, 8,10-dichloro-4-(2,3-dihydro-5-benzofuranyl)-5,6-dihydro-4H-pyrrolo[1,2-a][1,4]-benzodiazepine .HCl]	5.70	<4.19	5.70	<4.19	5.52	4.96	<4.19
Cl.Clc1ccc(Cl)c2c1CNC(c1ccc3c(c1)CCC3)c1cccn1-2 (centres unmarked) [Compound 16, 7,10-dichloro-4-(2,3-dihydro-1H-inden-5-yl)-5,6-dihydro-4H-pyrrolo[1,2-a][1,4]-benzodiazepine .HCl]	5.00	<4.19	5.40	<4.19	<4.19	4.52	<4.19
Br.COc1cccc2c1CNC(c1ccc3c(c1)OCO3)c1cccn1-2 (centres unmarked) [Compound 8, 4-(1,3-benzodioxol-5-yl)-5,6-dihydro-7-methoxy-4H-pyrrolo[1,2-a][1,4]benzo-diazepine .HBr]	4.66	<4.19	5.22	<4.19	<4.19	<4.19	<4.19
Cl.Clc1cc(Cl)c2c(c1)CNC(c1ccc3c(c1)CCC3)c1cccn1-2 (centres unmarked) [Compound 17, 8,10-dichloro-4-(2,3-dihydro-1H-inden-5-yl)-5,6-dihydro-4H-pyrrolo[1,2-a][1,4]-benzodiazepine .HCl]	<4.19	<4.19	5.70	5.46	<4.19	4.71	<4.19
Fc1cc(F)c2c(c1)-n1cccc1C(c1ccc3c(c1)CCCO3)=NC2 [Compound 46, 4-(3,4-dihydro-2H-1-benzopyran-6-yl)-7,9-difluoro-6H-pyrrolo[1,2-a][1,4]benzo-diazepine]	4.48	5.79	4.44	4.49	5.49	<4.19	4.49

Source: patent publication US9040524B2, “Antifungal 5,6-dihydro-4H-pyrrolo[1,2-a][1,4]-benzodiazepines and 6H-pyrrolo[1,2-a][1,4]benzodiazepines substituted with bicycle benzene derivatives” (JANSSEN PHARMACEUTICA NV, priority 2010, dated 2015)
